Experimental data as given in publication PMC2744931, “Glutamate Uptake Triggers Transporter-Mediated GABA Release from Astrocytes” (PLoS ONE, 2009).

What was measured:
[1] = tested on: Glu decarboxylase (GAD); test: NMR (13C-HSQC) of [13C]GABA formation from [13C]Glu in rat cortical NPMV fraction; format: biochemical
Experimental: NPMV samples for NMR experiments were prepared as described before. NPMV fractions from the whole cortex were homogenized in 1 ml HEPES buffer containing 300 µM [^13C]Glu and were incubated at 30°C for 30 min. The homogenate was then centrifuged at 3500 g for 15 min. The supernatant (extracellular fraction) was stored and the pellet (intracellular fraction) was suspended in 1 ml HEPES buffer and frozen (−80°C) and thawed 3 times. In the NMR experiments on brain slices, 13 hippocampal slices were put in a 2 ml centrifuge tube and the ACSF was replaced with 1 ml ACSF containing 300 µM [^13C]Glu. The slices were incubated at 37°C for 30 min. Afterwards, the samples were frozen (−80°C) and thawed 3 times.
NMR experiments were carried out at 30°C on a Varian NMR SYSTEM (600 MHz for ^1H) four-channel spectrometer using a 5 mm indirect detection triple resonance (^1H^13C^15N) z-axis gradient probe. Samples (200 µl) were placed into 5 mm Shigemi NMR tubes. Gradient-enhanced ^1H/^13C heteronuclear correlation spectra (^13C-HSQC) were acquired with a ^1H spectral width of 9600 Hz and 2048 complex points, zero-filled to a total of 4096. […] Gaussian and exponential weighting functions were applied in the F2 dimension, while the indirectly detected dimensions were Gaussian weighted only. […]

[2] = tested on: GAT-3; set-up: method as in PMID 17408599, PMID 16274841; conditions: cited from earlier work
[3] = tested on: rat cortex NPMVs; test: [3H]GABA release from NPMV vesicles preloaded with [3H]GABA; format: biochemical; conditions: 10 min incubation with Glu, n = 3
Experimental: (§1) Cerebral cortices of 4–6 weeks old male Wistar rats (Toxicoop, Hungary) and frozen human brain tissue samples (Hungarian Brain Tissue Bank, Budapest) were used to prepare NPMV fractions, that contain numerous membrane vesicles of different sizes and shapes, a few intact synaptosomes and free mitochondria. […] Afterward, preincubated solution was incubated with [^3H]GABA (10 nM, Amersham) and GABA (90 nM, Sigma) for 1 min. In case of [^3H]β-alanine uptake, incubation solution contained 100 nM [^3H]β-alanine (Amersham) and 900 nM β-alanine (Sigma). After the incubation, samples were immediately filtered through glass fiber filters and washed twice with ice-cold HEPES buffer. The [^3H]GABA level inside the plasma membrane vesicles was determined by liquid scintillation method. Although this method is generally used to measure GABA uptake, we applied it to follow GABA release due to the simplicity and reliability of the assay. We also determined GABA release by preloading [^3H]GABA into NPMV vesicles and measuring the [^3H]GABA level in the intracellular and extracellular milieu. […] Non-specific uptake was determined in the presence of 1 mM guvacine. The radioactivity of samples was counted in HiSafe 3 (Perkin Elmer) scintillation mixture.

[4] = tested on: human NPMVs; test: [3H]GABA uptake in human brain tissue NPMVs; format: biochemical; conditions: 100 µM NNC-711; hippocampus, cortical gray and white matter, spinal cord white matter, choroid plexus, corpus callosum
Experimental: as §1

[5] = tested on: acute rat hippocampal slices; test: [3H]GABA efflux from acute rat hippocampal slices (microvolume superfusion); format: cell-based
Experimental: Radiolabeling of 400 µm thick acute slices was conducted in 200 µl of ACSF in a glass tube. […] To preferentially label the cytosolic over the vesicular pools, incubation of slices at 30°C lasted for 10 min [54]. Slices were washed with fresh ACSF containing GABA-T inhibitors, thereafter placed in a custom-built closed micro-volume (50 µl) chamber secured in a water bath thermostated at 30°C [55]. […] The superfusate was collected in 0.5 ml fractions. After washing for 10 min, 10 fractions were collected to define the basal release of radioactivity (‘pre-stimulus’). At this point, the hippocampal slice was exposed to 100 µM Glu for a period of 10 min (‘drug application’), followed by further 10 min of washing with ACSF (‘washout’). Radioactivity of each 0.5 ml fraction counted in 3 ml HiSafe 3 scintillation mixture was expressed as the percentage of the actual radioactivity content of the slice (fractional release). Fractional release data from individual slices were normalized to a first order exponential curve (obtained by fitting the pre-stimulus and the last 3 washout values). Normalized percent efflux data from fractions of ‘pre-stimulus’ (1–10 min) versus ‘drug application’ (11–20 min) periods were averaged and compared by statistical analysis.

[6] = tested on: GABA transport in rat cerebrocortical NPMV (GAT-2/3); test: [3H]GABA uptake in rat cerebrocortical native plasma membrane vesicles (NPMV) in the presence of 100 µM NNC-711; format: biochemical
Experimental: as §1

[7] = tested on: GAT-2/3; test: [3H]β-alanine uptake in rat cerebrocortical NPMV fraction; format: biochemical; conditions: n = 3
Experimental: as §1

[8] = tested on: rat cerebrocortical NPMV; test: Total extracellular GABA by HPLC in rat cerebrocortical NPMV samples; format: biochemical; conditions: 300 µM Glu, n = 3
[9] = tested on: rat hippocampus; test: In vivo microdialysis and HPLC amino acid detection in the hippocampus
Experimental: Male Wistar rats (300–400 g) were anaesthetized with halothane (1% in air) and microdialysis probes were implanted into the ventral hippocampus (A: −5.0, L: 5.0, V: −8.0) as described previously. To minimize tissue damage, the final position of the probes was reached slowly, in not less than 20 min. Perfusion of artificial cerebrospinal fluid, containing 144 mM NaCl, 3 mM KCl, 1 mM MgCl2, 2 mM CaCl2 (pH 7.4), was performed at a rate of 1 µl/min. The dialysate samples during 20 min were stored at −20°C. To establish the background amino acid concentration, each experiment started with the collection of three control samples with <10% variation. NNC-711 was applied bilaterally for 60 min followed by the simultaneous application of t-PDC and NNC-711 for 60 min. Concentration of amino acids was measured by pre-column derivatization of primary amino acids with orthophthalaldehyde (OPA, Sigma). Derivatization was performed at pH 10.4 in the presence of mercaptoethanol. OPA-derivatized amino acids were detected with fluorescence detector excitation wavelength 340 nm and emission wavelength 440 nm. Because of the instability of OPA derivatives, the HPLC technique was automated on an HP 1100 series system. Amino acids were separated on HP Hypersyl ODS reversed-phase columns (200×2.1 mm) filled with 5 µm C-18 spherical packing material. Eluent A was 0.1 M phosphate buffer containing 0.5% (vol/vol) tetrahydrofuran (Merck), pH 5.6, while eluent B contained 70% acetonitrile (Merck) in eluent A, pH 5.6. The gradient profile was: 12% B at 0 min, 23% B at 9 min, 36% B at 18 min, 100% B at 20 min, 100% B at 25 min and 12% B at 30 min. The column equilibration time was 8 min. External standards of 10 µM amino acids were injected after every 20 samples. Chromatograms were evaluated with HP Chem-Station software. Concentration of GABA measured in dialysate samples collected during drug applications were related to averaged GABA concentration of control samples collected for an hour prior to drug application and were given as percent changes.

[10] = tested on: hippocampus; conditions: cited from earlier work

[15NH2][13C@@H]([13CH2][13CH2][13C](=O)O)[13C](=O)O [[^13C]Glu, [U-^13C/^15N]Glu]
share of extracellularly applied [13C]Glu converted to [13C]GABA and released ([1]; 300 µM [13C]Glu, 30 min, rat cortical NPMV): ~5%

CC[C@@H](C(N)=O)N1CCCC1=O [levetiracetam]
GAT-3 expression in the hippocampus [2]: up-regulate GAT-3 expression

CN1C(=O)CC(=O)N(c2ccccc2)c2cc(Cl)ccc21 [clobazam]
GAT-3 expression in the hippocampus [2]: up-regulate GAT-3 expression

N[C@@H](CCC(=O)O)C(=O)O [Glu, L-glutamate]
IC50 [3]: 13.1 ± 1.6 µM | inhibition of [3H]GABA uptake in human brain tissue samples [4]: able to inhibit [^3H]GABA uptake in all investigated areas | elevation of [GABA]o ([3H]GABA efflux) ([5]; 100 µM Glu in low-[Ca2+]/high-[Mg2+] buffer, n = 5): 148.3±15.5 % of pre-stimulus control | elevation of [GABA]o ([3H]GABA efflux) ([5]; 100 µM Glu in the presence of glutamate receptor antagonists (DL-AP5 50 µM, CNQX 10 µM, (S)-MCPG 500 µM), n = 7): 128.5±13.4 % of pre-stimulus control | elevation of [GABA]o ([3H]GABA efflux) ([5]; 100 µM Glu, control conditions, n = 6): 149±14 % of pre-stimulus control | share of average [GABA]o increase remaining ([5]; Glu-induced release in the presence of Glu receptor antagonists): 58% | IC50 ([6]; 10 min preincubation, 100 µM NNC-711, rat cerebrocortical NPMV, n = 7, read-out: IC50, inhibition of [3H]GABA uptake): 11 ± 0.1 µM | inhibition of GABA uptake ([6]; preincubation of vesicles with Glu for 10 minutes, in the presence of NNC-711): 52% | effect on cytosolic β-alanine level ([3H]β-alanine uptake) [7]: reduce cytosolic level | increase of the extracellular GABA level (HPLC) ([8]; SCB-treated rats): 35±6% | increase of the extracellular GABA level (HPLC) ([8]; control rats): 46±3%

O=C(O)[C@@H]1CN[C@@H](C(=O)O)C1 (relative stereo) [t-PDC, L-trans-pyrrolidine-2,4-dicarboxylate]
inhibition of [3H]GABA uptake in human brain tissue samples [4]: able to inhibit [^3H]GABA uptake in all investigated areas | [Arginine]o in the rat hippocampus in vivo ([9]; control for non-specific release, n = 10): 94±32 % of control | [GABA]o in the rat hippocampus in vivo ([9]; microdialysis application, t-PDC applied together with NNC-711, n = 10): 233±33 % of control | neuronal damage after in vivo administration in the hippocampus [10]: did not produce cell death | neuronal damage in vivo ([10]; very high concentration (25–100 mM)): did not evoke neuronal damage in vivo | effect on GABA transport in rat cortical NPMV ([6]; 10 min preincubation, 100 µM NNC-711 (Figure 1B)): able to affect GABA transport

NNC(N)=O [SCB, semicarbazide]
effect on [13C]GABA formation ([1]; SCB treatment, rat cortical NPMV fraction): completely blocked | elevation of [GABA]o ([3H]GABA efflux) ([5]; Glu-induced release, slices of SCB-treated animals (100 mg/kg i.p., 2 mM present), n = 7): 145±14 % of pre-stimulus control | modulation of the effect of Glu on GABA transport / cytosolic GABA level in rat cortical NPMV ([6]; 100 µM NNC-711 present): did not affect [^3H]GABA release
